Read-outs that look alike come from different tables or passages of the source.
What was measured:
[1] = system: peripheral blood mononuclear cell (PBMC); test: Peripheral blood mononuclear cell assay (cytokine levels); type: cell-based
Method: Selected compounds were tested in an in vitro peripheral blood mononuclear cell (PBMC) assay. […] Serially diluted tested compounds were added to wells in 50 μl of cultivation medium and cell were incubated with compounds for 1 h at 37° C. with 5% CO2. Plates with cells were then spun 500 g for 5 minutes and medium was removed. Cells were washed twice with the cell culture medium by the use of centrifugation and gently resuspended in 100 μl medium without compounds. After 15 hour incubation at 37° C. with 5% CO2, the cell culture medium was collected and the levels of interferon-alpha (INF-α), interferon-gamma (INF-γ) and tumor necrosis factor-alpha (TNF-α) were determined with ProcartaPlex Assays (ThermoFisher, Waltham, USA) and MAGPIX System (Merck KGaA, Darmstadt, Germany). […] Values reported are an average of runs from one to four donors.

[2] = target: T1, human wild type STING (WT STING) (Homo sapiens, UniProt Q86WV6, H232R); test: 293T WT STING standard reporter assay; type: cell-based; details: no digitonin, 7 hours, ISRE firefly luciferase
T1 construct: host or cells: 293T cells (ATCC CRL-3216), stably double transfected with pUNO1-hSTING-WT and pGL64.27-4×ISRE
T1 sequence (Q86WV6 whole entry H232R): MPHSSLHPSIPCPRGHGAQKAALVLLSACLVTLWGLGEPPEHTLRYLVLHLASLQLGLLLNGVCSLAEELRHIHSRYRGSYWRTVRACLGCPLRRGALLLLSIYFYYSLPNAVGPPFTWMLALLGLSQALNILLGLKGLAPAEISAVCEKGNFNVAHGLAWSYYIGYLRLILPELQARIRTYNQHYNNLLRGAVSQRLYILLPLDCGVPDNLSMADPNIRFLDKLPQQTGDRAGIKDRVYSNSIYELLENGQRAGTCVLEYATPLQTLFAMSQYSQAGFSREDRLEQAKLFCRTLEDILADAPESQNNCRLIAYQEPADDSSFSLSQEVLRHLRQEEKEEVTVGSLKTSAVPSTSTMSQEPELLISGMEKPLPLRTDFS
Source text: Two complementary oligonucleotides of the sequence […] […] […] […] […] The oligonucleotides were mixed in equal molar amounts, hybridized, and cleaved by restriction endonucleases HindIII (cat. #. R0104S, NEB, Ipswich, USA) and BglII (cat. #R0144S, NEB, Ipswich, USA). Ultimately, they were ligated into plasmid pGL4.27 (cat. #E6651, Promega, Madison, USA) linearized with the same enzymes. As result the sequence with four ISRE sites was placed upstream of the minimum promoter of firefly luciferase reporter gene.
After 5 minutes incubation at room temperature (RT), 250 μL of the mixture was added dropwise to the cells in one well. Cells were incubated 36 hours at 37° C. with 5% CO2, and then detached with 0.05% Trypsin and 0.22 g/L EDTA (both cat. #L0941, Biowest, Riverside, USA).
Transfected cells were seeded onto poly-D-lysine coated six well plates at density 50,000 cells per 1 cm^2 in DMEM medium with high glucose containing 10% heat inactivated FBS, 30 μg/mL blasticidin (cat. #ant-b1-05, InvivoGen, San Diego, USA), 0.06 mg/ml Penicillin G and 0.1 mg/ml Streptomycin Sulfate (both cat. #. L0018, Biowest, Riverside, USA). The medium was replenished every 3-4 days until visible colonies of cells resistant to blasticidin were formed.
Blasticidin resistant cells stably expressing WT STING were further transfected with pGL64.27-4×ISRE plasmid following the same procedure as described above. […] Homogeneous culture of stably double transfected cells was prepared by limiting dilution of cells in 96 well plates and wells with cells were selected that originated from a single cell.
The medium was removed the next day and three-fold serial dilutions of compounds in 100 μl medium were added to the cells. The plates were incubated for 7 hours at 37° C. with 5% CO2. Next 50 μl of the medium was removed from wells, and 30 μl of ONE-Glo™ Luciferase Assay System reagent (cat. #E6120, Promega, Madison, USA) was added to each well. Luminescence was read on Synergy H1 (Biotek, Winooski, USA).

[3] = 1 h with compound, wash, 15 hour incubation, average of one to four donors, read-out: PBMC EC50 IFN-α
[4] = 1 h with compound, wash, 15 hour incubation, average of one to four donors, read-out: PBMC EC50 IFN-γ
[5] = 1 h with compound, wash, 15 hour incubation, average of one to four donors, read-out: PBMC EC50 TNF-α
[6] = 293T wtSTING-FL cells, read-out: 293T WT STING EC50
[7] = 293T WT STING EC50, 293T wtSTING-FL cells

SMILES	EC50 [1, 3]	EC50 [1, 4]	EC50 [1, 5]	EC50 [2, 6]	EC50 [2, 7]	other results
CCCCCCCCCC(=O)OCSP1(=O)OC[C@H]2O[C@@H](n3cnc4c(N)ncnc43)[C@H](F)[C@@H]2OCP(=O)(O)OC[C@H]2O[C@@H](n3cnc4c(N)ncnc43)[C@H](F)[C@@H]2O1 (single isomer, unassigned) [Compound 36b]	1000 nM	500 nM	800 nM			
CC(C)OC(=O)OCOP1(=O)CO[C@H]2[C@@H](F)[C@H](n3cnc4c(N)ncnc43)O[C@@H]2COP(=O)(OCOC(=O)OC(C)C)O[C@H]2[C@@H](F)[C@H](n3cnc4c(N)ncnc43)O[C@@H]2CO1 (single isomer, unassigned) [Compound 42a]				8100 nM		
CCCCCCCC(=O)OCOP1(=O)CO[C@H]2[C@@H](F)[C@H](n3cnc4c(N)ncnc43)O[C@@H]2COP(=O)(OCOC(=O)CCCCCCC)O[C@H]2[C@@H](F)[C@H](n3cnc4c(N)ncnc43)O[C@@H]2CO1 (mixture of isomers) [Compound 46b, {[(1R,6R,8R,9R,10R,16R,18R,19R)-8,18-bis(6-amino-9H-purin-9-yl)-9,19-difluoro-13-[(octanoyloxy)methoxy]-3,13-dioxo-2,4,7,11,14,17-hexaoxa-3λ^5,13λ^5-diphosphatricyclo[14.3.0.0^6,^10]nonadecan-3-yl]oxy}methyl octanoate]	4 nM		1 nM	2 nM		
CC(C)OC(=O)OCSP1(=O)CO[C@H]2[C@@H](F)[C@H](n3cnc4c(N)ncnc43)O[C@@H]2COP(=O)(SCOC(=O)OC(C)C)O[C@H]2[C@@H](F)[C@H](n3cnc4c(N)ncnc43)O[C@@H]2CO1 (single isomer, unassigned) [Compound 40b]					1200 nM	
CC(C)OC(=O)OCOP1(=O)CO[C@H]2[C@@H](F)[C@H](n3cnc4c(N)ncnc43)O[C@@H]2COP(=O)(OCOC(=O)OC(C)C)O[C@H]2[C@@H](F)[C@H](n3cnc4c(N)ncnc43)O[C@@H]2CO1 (mixture of isomers) [Compound 42b, {[(1R,6R,8R,9R,10R,16R,18R,19R)-8,18-bis(6-amino-9H-purin-9-yl)-9,19-difluoro-3,13-dioxo-13-({[(propan-2-yloxy)carbonyl]oxy}methoxy)-2,4,7,11,14,17-hexaoxa-3λ^5,13λ^5-diphosphatricyclo[14.3.0.0^6,^10]nonadecan-3-yl]oxy}methyl propan-2-yl carbonate]	2300 nM	1300 nM	1100 nM	250 nM		
CCCCCCCC(=O)OCOP1(=O)CO[C@H]2[C@@H](F)[C@H](n3cnc4c(N)ncnc43)O[C@@H]2COP(=O)(OCOC(=O)CCCCCCC)O[C@H]2[C@@H](F)[C@H](n3cnc4c(N)ncnc43)O[C@@H]2CO1 (single isomer, unassigned) [Compound 46c]	20 nM		10 nM	1 nM		
CC(C)(C)C(=O)OCSP1(=O)CO[C@H]2[C@@H](F)[C@H](n3cnc4c(N)ncnc43)O[C@@H]2COP(=O)(SCOC(=O)C(C)(C)C)O[C@H]2[C@@H](F)[C@H](n3cnc4c(N)ncnc43)O[C@@H]2CO1 (single isomer, unassigned) [Compound 39a]					1100 nM	
CCCCCCCC(=O)OCOP1(=O)CO[C@H]2[C@@H](F)[C@H](n3cnc4c(N)ncnc43)O[C@@H]2COP(=O)(OCOC(=O)CCCCCCC)O[C@H]2[C@@H](F)[C@H](n3cnc4c(N)ncnc43)O[C@@H]2CO1 (single isomer, unassigned) [Compound 46a]	3 nM		1 nM	5 nM		
CC1(C(=O)OCOP2(=O)CO[C@H]3[C@@H](F)[C@H](n4cnc5c(N)ncnc54)O[C@@H]3COP(=O)(OCOC(=O)C3(C)CCCCC3)O[C@H]3[C@@H](F)[C@H](n4cnc5c(N)ncnc54)O[C@@H]3CO2)CCCCC1 (mixture of isomers) [Compound 45b]	70 nM	20 nM	20 nM	30 nM		
CCCCCCCCCCCC(=O)OCSP1(=O)CO[C@H]2[C@@H](F)[C@H](n3cnc4c(N)ncnc43)O[C@@H]2COP(=O)(SCOC(=O)CCCCCCCCCCC)O[C@H]2[C@@H](F)[C@H](n3cnc4c(N)ncnc43)O[C@@H]2CO1 (single isomer, unassigned) [Compound 43b]					30 nM	EC50 ([1]; read-out: PBMC EC50 IFN-α, 1 h with compound, wash, 15 hour incubation, average of one to four donors): 400 nM; EC50 ([1]; read-out: PBMC EC50 IFN-γ, 1 h with compound, wash, 15 hour incubation, average of one to four donors): 300 nM; EC50 ([1]; read-out: PBMC EC50 TNF-α, PBMC, 1 h with compound, wash, 15 hour incubation, average of one to four donors): 200 nM
CC(C)(C)C(=O)OCOP1(=O)CO[C@H]2[C@@H](F)[C@H](n3cnc4c(N)ncnc43)O[C@@H]2COP(=O)(OCOC(=O)C(C)(C)C)O[C@H]2[C@@H](F)[C@H](n3cnc4c(N)ncnc43)O[C@@H]2CO1 (single isomer, unassigned) [Compound 41c]	70 nM	60 nM	60 nM	11 nM		
Nc1nc2c(ncn2[C@@H]2O[C@@H]3COP(=O)(O)O[C@H]4[C@@H](O)[C@H](n5cnc6c(N)ncnc65)O[C@@H]4COP(=O)(O)O[C@@H]2[C@@H]3O)c(=O)[nH]1 [2′3′-cGAMP, reference compound]	300000 nM	164000 nM	210000 nM			
CC(C)(C)C(=O)OCSP1(=O)CO[C@H]2[C@@H](F)[C@H](n3cnc4c(N)ncnc43)O[C@@H]2COP(=O)(SCOC(=O)C(C)(C)C)O[C@H]2[C@@H](F)[C@H](n3cnc4c(N)ncnc43)O[C@@H]2CO1 (single isomer, unassigned) [Compound 39c]					30 nM	
CC(C)OC(=O)OCSP1(=O)CO[C@H]2[C@@H](F)[C@H](n3cnc4c(N)ncnc43)O[C@@H]2COP(=O)(SCOC(=O)OC(C)C)O[C@H]2[C@@H](F)[C@H](n3cnc4c(N)ncnc43)O[C@@H]2CO1 (single isomer, unassigned) [Compound 40c]					3900 nM	
CCCCCCCCCCCCOC(=O)OCSP1(=O)OC[C@H]2O[C@@H](n3cnc4c(N)ncnc43)[C@H](F)[C@@H]2OCP(=O)(O)OC[C@H]2O[C@@H](n3cnc4c(N)ncnc43)[C@H](F)[C@@H]2O1 (stereo partly drawn) [Compound 34b, (((2R,3R,3aR,7aR,9R,10R,10aR,15aR)-2,9-bis(6-amino-9H-purin-9-yl)-3,10-difluoro-13-hydroxy-5,13-dioxidodecahydro-2H-difuro[3,2-d:3′,2′-k][1,3,7,10]tetraoxa[2,8]diphosphacyclotridecin-5-yl)thio)methyl dodecyl carbonate]	1300 nM	500 nM	700 nM			
CC(C)(C)C(=O)OCSP1(=O)CO[C@H]2[C@@H](F)[C@H](n3cnc4c(N)ncnc43)O[C@@H]2COP(=O)(SCOC(=O)C(C)(C)C)O[C@H]2[C@@H](F)[C@H](n3cnc4c(N)ncnc43)O[C@@H]2CO1 (single isomer, unassigned) [Compound 39b]					20 nM	
CCCCCCCCCC(=O)OCSP1(=O)OC[C@H]2O[C@@H](n3cnc4c(N)ncnc43)[C@H](F)[C@@H]2OCP(=O)(O)OC[C@H]2O[C@@H](n3cnc4c(N)ncnc43)[C@H](F)[C@@H]2O1 (single isomer, unassigned) [Compound 36a]	2500 nM	1600 nM	1200 nM			
CCCCCCCCCCCC(=O)OCSP1(=O)OC[C@H]2O[C@@H](n3cnc4c(N)ncnc43)[C@H](F)[C@@H]2OCP(=O)(O)OC[C@H]2O[C@@H](n3cnc4c(N)ncnc43)[C@H](F)[C@@H]2O1 (single isomer, unassigned) [Compound 31b]	800 nM	300 nM	500 nM			
CC(C)(C)C(=O)OCOP1(=O)CO[C@H]2[C@@H](F)[C@H](n3cnc4c(N)ncnc43)O[C@@H]2COP(=O)(OCOC(=O)C(C)(C)C)O[C@H]2[C@@H](F)[C@H](n3cnc4c(N)ncnc43)O[C@@H]2CO1 (single isomer, unassigned) [Compound 41a]				40 nM		

From US20220143061A1, “3'3'-CYCLIC DINUCLEOTIDES AND PRODRUGS THEREOF” (INSTITUTE OF ORGANIC CHEMISTRY AND BIOCHEMISTRY ASCR, V.V.I., priority 2019, published 2022)
